We go through five molecules from paper PMC6458995, “MAP4K4 Inhibition Promotes Survival of Human Stem Cell-Derived Cardiomyocytes and Reduces Infarct Size In Vivo” (Cell Stem Cell, 2019).

Test in all cases: Dundee kinase panel
What all share (format): biochemical
What all share (settings): for remaining activity at 1 µM: read-out: residual activity

The target in one test is T1, TAK1 (Homo sapiens, UniProt O43318).
T1 construct: lines 1-140) and Reaction Biology
T1 sequence (O43318 1-303 limits assumed): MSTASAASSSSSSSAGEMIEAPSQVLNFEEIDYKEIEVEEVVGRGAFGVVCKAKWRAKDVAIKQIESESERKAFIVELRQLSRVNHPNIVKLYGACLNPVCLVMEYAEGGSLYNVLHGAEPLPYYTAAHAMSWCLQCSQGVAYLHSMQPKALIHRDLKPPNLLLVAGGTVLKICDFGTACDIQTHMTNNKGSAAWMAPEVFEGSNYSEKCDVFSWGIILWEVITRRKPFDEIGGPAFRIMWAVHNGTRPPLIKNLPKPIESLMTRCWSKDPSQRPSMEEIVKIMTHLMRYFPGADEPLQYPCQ
As to the method:
(§1) Compounds were screened at 1 μM. For key hits, pIC50 values were then determined by HTRF as above. […] Stability in mouse and human liver microsomes was determined by Cyprotex.

The next test addresses T2, PRAK (Homo sapiens, UniProt Q8IW41).
T2 construct: lines 1-140) and Reaction Biology
T2 sequence (Q8IW41 1-473): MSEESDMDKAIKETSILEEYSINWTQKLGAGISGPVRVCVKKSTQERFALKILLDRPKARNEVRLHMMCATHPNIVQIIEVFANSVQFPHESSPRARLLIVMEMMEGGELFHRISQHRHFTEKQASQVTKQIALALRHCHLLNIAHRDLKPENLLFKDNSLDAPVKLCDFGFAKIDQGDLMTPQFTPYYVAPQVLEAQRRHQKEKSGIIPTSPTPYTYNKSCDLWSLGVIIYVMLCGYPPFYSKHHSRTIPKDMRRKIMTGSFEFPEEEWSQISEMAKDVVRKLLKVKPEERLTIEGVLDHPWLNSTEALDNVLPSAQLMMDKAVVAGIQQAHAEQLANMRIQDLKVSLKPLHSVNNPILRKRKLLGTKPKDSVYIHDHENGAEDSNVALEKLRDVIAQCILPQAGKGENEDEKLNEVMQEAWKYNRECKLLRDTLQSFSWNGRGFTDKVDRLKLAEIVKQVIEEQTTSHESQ
As to the method: as §1

The next test concerns the target T3, BRSK1 (Homo sapiens, UniProt Q8TDC3).
T3 construct: lines 1-140) and Reaction Biology
T3 sequence (Q8TDC3 1-778): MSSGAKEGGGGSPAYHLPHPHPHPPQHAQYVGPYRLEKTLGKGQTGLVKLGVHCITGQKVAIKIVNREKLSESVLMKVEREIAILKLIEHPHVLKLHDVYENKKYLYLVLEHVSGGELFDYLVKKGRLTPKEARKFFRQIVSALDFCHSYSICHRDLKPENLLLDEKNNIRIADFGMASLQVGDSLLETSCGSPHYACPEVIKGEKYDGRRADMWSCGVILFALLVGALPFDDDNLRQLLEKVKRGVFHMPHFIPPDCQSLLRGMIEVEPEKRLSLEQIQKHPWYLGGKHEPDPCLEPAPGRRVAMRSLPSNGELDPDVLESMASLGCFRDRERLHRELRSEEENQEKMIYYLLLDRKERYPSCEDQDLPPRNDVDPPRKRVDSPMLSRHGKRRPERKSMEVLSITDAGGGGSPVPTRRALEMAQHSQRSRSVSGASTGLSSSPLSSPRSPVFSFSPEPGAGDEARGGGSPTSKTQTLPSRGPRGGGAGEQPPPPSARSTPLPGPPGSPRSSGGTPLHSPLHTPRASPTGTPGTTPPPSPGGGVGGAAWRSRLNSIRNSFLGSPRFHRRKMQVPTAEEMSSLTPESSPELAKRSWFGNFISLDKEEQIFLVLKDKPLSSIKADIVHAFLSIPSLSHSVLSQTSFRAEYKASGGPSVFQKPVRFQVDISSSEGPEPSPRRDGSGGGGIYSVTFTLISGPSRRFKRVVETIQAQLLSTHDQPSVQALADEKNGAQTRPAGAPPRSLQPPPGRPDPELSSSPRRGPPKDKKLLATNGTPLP
As to the method:
as §1

In the next test the target is T4, IRAK4 (Homo sapiens, UniProt Q9NWZ3).
T4 construct: lines 1-140) and Reaction Biology
T4 sequence (Q9NWZ3 1-460): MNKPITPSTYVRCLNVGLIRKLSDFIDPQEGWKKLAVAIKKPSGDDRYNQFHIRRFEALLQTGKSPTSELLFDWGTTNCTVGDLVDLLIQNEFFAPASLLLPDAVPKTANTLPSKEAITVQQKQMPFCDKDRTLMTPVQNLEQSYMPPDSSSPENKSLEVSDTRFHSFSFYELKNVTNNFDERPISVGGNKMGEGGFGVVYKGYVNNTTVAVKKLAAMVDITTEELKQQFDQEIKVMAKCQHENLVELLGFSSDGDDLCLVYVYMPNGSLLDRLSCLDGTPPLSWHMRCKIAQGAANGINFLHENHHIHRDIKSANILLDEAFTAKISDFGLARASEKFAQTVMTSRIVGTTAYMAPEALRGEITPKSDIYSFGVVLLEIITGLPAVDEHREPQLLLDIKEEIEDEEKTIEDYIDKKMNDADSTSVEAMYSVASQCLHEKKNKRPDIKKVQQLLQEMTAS
As to the method: as §1

What is called residual activity is the signal under treatment as a percentage of the control signal. A high value points to much activity left.

SMILES strings stand for the structures.

In the case of `O=C1Nc2ccc(I)cc2/C1=C/c1cc(Br)c(O)c(Br)c1` [GW5074], the remaining activity at 1 µM at TAK1 is 92%; on PRAK, 93%; on BRSK1, 68%; at IRAK4, 78%.
For `Nc1ncc(C(=O)NC2CN(C(=O)C3CC3)C2)c2ccc(-c3cccc(F)c3)nc12` [GNE-495], the residual activity on TAK1 (1 μM) came out at 31%; at PRAK (1 μM), 91%; on BRSK1 (1 μM), 71%; at IRAK4 (1 μM), 75%.
With `Oc1ncnc2c1c(-c1ccccc1)cn2-c1ccccc1` [F1386-0303, 5,7-diphenyl-7H-pyrrolo[2,3-d]pyrimidin-4-ol], the remaining activity at 1 µM worked out at 102% on TAK1, 113% at PRAK, 84% at BRSK1 and 103% at IRAK4.
On the same counts, the results for `COCCOc1ccc(-c2cn(-c3ccccc3)c3nc[nH]c(=O)c23)cc1` [DMX-5804, 5-[4-(2-methoxy-ethoxy)-phenyl]-7-phenyl-3,7-dihydro-pyrrolo[2,3-d]pyrimidin-4-one] are 61%, 92%, 97% and 97%.
On the same counts, the results for `O=C1Cc2c([nH]c3ccc(Br)cc23)-c2ccccc2N1` [Kenpaullone] are 113%, 95%, 55% and 65%.
